Measured values: PubChem BioAssay (NCI)
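96-well plates; 48 h exposure; 5 concentrations. Endpoints by linear interpolation between flanking doses. Not reached: highest tested concentration assigned. At the GI50, growth is halved. The concentration for full growth arrest is given as TGI.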

What was measured:
Experiment in all cases: inhibition of tumour cell growth, NCI panel, 48 h
MCF7 breast = system: MCF7 breast
BT-549 breast = system: BT-549 breast
RPMI-8226 leukemia = system: RPMI-8226 leukemia
UO-31 renal = system: UO-31 renal
A549 NSCLC = system: A549 NSCLC
EKVX NSCLC = system: EKVX NSCLC
NCI-H522 lung = system: NCI-H522 lung
CCRF-CEM leukemia = system: CCRF-CEM leukemia
SR leukemia = system: SR leukemia
IGROV1 ovarian = system: IGROV1 ovarian
OVCAR-8 ovarian = system: OVCAR-8 ovarian
OVCAR-3 ovarian = system: OVCAR-3 ovarian
SK-MEL-28 melanoma = system: SK-MEL-28 melanoma
HOP-62 NSCLC = system: HOP-62 NSCLC
MOLT-4 leukemia = system: MOLT-4 leukemia
HCC-2998 colon = system: HCC-2998 colon
NCI-H23 lung = system: NCI-H23 lung
MALME-3M melanoma = system: MALME-3M melanoma
SK-OV-3 ovarian = system: SK-OV-3 ovarian
LOX IMVI melanoma = system: LOX IMVI melanoma
MDA-MB-435 = system: MDA-MB-435
HT29 colon = system: HT29 colon
T-47D breast = system: T-47D breast
PC-3 prostate = system: PC-3 prostate
OVCAR-5 ovarian = system: OVCAR-5 ovarian
HL-60(TB) leukemia = system: HL-60(TB) leukemia
SK-MEL-2 melanoma = system: SK-MEL-2 melanoma
HS 578T breast = system: HS 578T breast
NCI-H226 lung = system: NCI-H226 lung
SF-268 CNS = system: SF-268 CNS
K-562 leukemia = system: K-562 leukemia
M14 melanoma = system: M14 melanoma
SW-620 colon = system: SW-620 colon
SNB-75 CNS = system: SNB-75 CNS
SK-MEL-5 melanoma = system: SK-MEL-5 melanoma
UACC-257 melanoma = system: UACC-257 melanoma
A498 renal = system: A498 renal
786-0 renal = system: 786-0 renal
UACC-62 melanoma = system: UACC-62 melanoma
SF-539 CNS = system: SF-539 CNS
TK-10 renal = system: TK-10 renal
OVCAR-4 ovarian = system: OVCAR-4 ovarian
NCI-H460 lung = system: NCI-H460 lung
HCT-15 colon = system: HCT-15 colon
HOP-92 NSCLC = system: HOP-92 NSCLC
HCT-116 colon = system: HCT-116 colon
DU-145 prostate = system: DU-145 prostate
MDA-MB-231 breast = system: MDA-MB-231 breast
SN12C renal = system: SN12C renal
CAKI-1 renal = system: CAKI-1 renal
ACHN renal = system: ACHN renal
RXF 393 renal = system: RXF 393 renal
KM12 colon = system: KM12 colon
SF-295 CNS = system: SF-295 CNS
NCI/ADR-RES ovarian = system: NCI/ADR-RES ovarian
U251 CNS = system: U251 CNS
SNB-19 CNS = system: SNB-19 CNS
COLO 205 colon = system: COLO 205 colon

With `ClC1=C(Cl)C(Cl)=C(Cl)C1=Cc1ccccc1` the GI50 (MCF7 breast) was 0.61 µM, the TGI (MCF7 breast) was 7.02 µM and the GI50 (BT-549 breast) was 1.68 µM. For the same compound, the TGI (BT-549 breast) was 3.89 µM, the GI50 (RPMI-8226 leukemia) was 0.311 µM and the TGI (RPMI-8226 leukemia) was 2.3 µM. It also gave a GI50 (UO-31 renal) of 0.527 µM, a TGI (UO-31 renal) of 1.98 µM and a GI50 (A549 NSCLC) of 1.63 µM. The TGI (A549 NSCLC) was 4.32 µM, the GI50 (EKVX NSCLC) was 1.4 µM and the TGI (EKVX NSCLC) was 3.39 µM. For the same compound, the GI50 (NCI-H522 lung) was 0.189 µM, the TGI (NCI-H522 lung) was 0.459 µM and the GI50 (CCRF-CEM leukemia) was 0.288 µM. The TGI (CCRF-CEM leukemia) was 3.57 µM, the GI50 (SR leukemia) was 0.334 µM and the TGI (SR leukemia) was 2.57 µM. It also gave a GI50 (IGROV1 ovarian) of 0.916 µM, a TGI (IGROV1 ovarian) of 2.51 µM and a GI50 (OVCAR-8 ovarian) of 0.417 µM. It also gave a TGI (OVCAR-8 ovarian) of 21 µM, a GI50 (OVCAR-3 ovarian) of 0.463 µM and a TGI (OVCAR-3 ovarian) of 1.62 µM. The GI50 (SK-MEL-28 melanoma) was 1.62 µM, the TGI (SK-MEL-28 melanoma) was 3.27 µM and the GI50 (HOP-62 NSCLC) was 1.64 µM. The TGI (HOP-62 NSCLC) was 3.68 µM, the GI50 (MOLT-4 leukemia) was 0.314 µM and the TGI (MOLT-4 leukemia) was 1.56 µM. The GI50 (HCC-2998 colon) was 1.73 µM, the TGI (HCC-2998 colon) was 3.14 µM and the GI50 (NCI-H23 lung) was 0.52 µM. The TGI (NCI-H23 lung) was 2.08 µM, the GI50 (MALME-3M melanoma) was 1.49 µM and the TGI (MALME-3M melanoma) was 4.15 µM. The GI50 (SK-OV-3 ovarian) was 2 µM, the TGI (SK-OV-3 ovarian) was 4.66 µM and the GI50 (LOX IMVI melanoma) was 0.198 µM. The TGI (LOX IMVI melanoma) was 0.469 µM, the GI50 (MDA-MB-435) was 0.35 µM and the TGI (MDA-MB-435) was 1.16 µM. It also gave a GI50 (HT29 colon) of 0.457 µM, a TGI (HT29 colon) of 2.27 µM and a GI50 (T-47D breast) of 1.15 µM. It also gave a TGI (T-47D breast) of 3.56 µM, a GI50 (PC-3 prostate) of 0.622 µM and a TGI (PC-3 prostate) of 3.7 µM. For the same compound, the GI50 (OVCAR-5 ovarian) was 1.65 µM, the TGI (OVCAR-5 ovarian) was 3.85 µM and the GI50 (HL-60(TB) leukemia) was 0.595 µM. It also gave a TGI (HL-60(TB) leukemia) of 2.4 µM, a GI50 (SK-MEL-2 melanoma) of 1.38 µM and a TGI (SK-MEL-2 melanoma) of 2.97 µM. The GI50 (HS 578T breast) was 0.915 µM, the TGI (HS 578T breast) was 10.1 µM and the GI50 (NCI-H226 lung) was 1.91 µM. For the same compound, the TGI (NCI-H226 lung) was 3.86 µM, the GI50 (SF-268 CNS) was 0.753 µM and the TGI (SF-268 CNS) was 2.43 µM. For the same compound, the GI50 (K-562 leukemia) was 0.277 µM, the TGI (K-562 leukemia) was 3.5 µM and the GI50 (M14 melanoma) was 0.495 µM. The TGI (M14 melanoma) was 2.11 µM, the GI50 (SW-620 colon) was 0.293 µM and the TGI (SW-620 colon) was 1.03 µM. It also gave a GI50 (SNB-75 CNS) of 1.46 µM, a TGI (SNB-75 CNS) of 3.1 µM and a GI50 (SK-MEL-5 melanoma) of 1.38 µM. It also gave a TGI (SK-MEL-5 melanoma) of 2.68 µM, a GI50 (UACC-257 melanoma) of 0.731 µM and a TGI (UACC-257 melanoma) of 2.13 µM. It also gave a GI50 (A498 renal) of 1.39 µM, a TGI (A498 renal) of 2.78 µM and a GI50 (786-0 renal) of 1.32 µM. It also gave a TGI (786-0 renal) of 3.08 µM, a GI50 (UACC-62 melanoma) of 1.65 µM and a TGI (UACC-62 melanoma) of 5.02 µM. The GI50 (SF-539 CNS) was 1.83 µM, the TGI (SF-539 CNS) was 4.2 µM and the GI50 (TK-10 renal) was 0.645 µM. The TGI (TK-10 renal) was 2.02 µM, the GI50 (OVCAR-4 ovarian) was 2 µM and the TGI (OVCAR-4 ovarian) was 6.92 µM. It also gave a GI50 (NCI-H460 lung) of 1.25 µM, a TGI (NCI-H460 lung) of 4.13 µM and a GI50 (HCT-15 colon) of 1.22 µM. It also gave a TGI (HCT-15 colon) of 6.04 µM, a GI50 (HOP-92 NSCLC) of 0.621 µM and a TGI (HOP-92 NSCLC) of 1.61 µM. For the same compound, the GI50 (HCT-116 colon) was 0.293 µM, the TGI (HCT-116 colon) was 0.936 µM and the GI50 (DU-145 prostate) was 0.708 µM. It also gave a TGI (DU-145 prostate) of 2.83 µM, a GI50 (MDA-MB-231 breast) of 2.43 µM and a TGI (MDA-MB-231 breast) of 10.4 µM. For the same compound, the GI50 (SN12C renal) was 1.95 µM, the TGI (SN12C renal) was 7.15 µM and the GI50 (CAKI-1 renal) was 0.342 µM. For the same compound, the TGI (CAKI-1 renal) was 1.13 µM, the GI50 (ACHN renal) was 0.703 µM and the TGI (ACHN renal) was 2.22 µM. For the same compound, the GI50 (RXF 393 renal) was 0.92 µM, the TGI (RXF 393 renal) was 2.23 µM and the GI50 (KM12 colon) was 1.47 µM. For the same compound, the TGI (KM12 colon) was 3.11 µM, the GI50 (SF-295 CNS) was 1.33 µM and the TGI (SF-295 CNS) was 3.74 µM. The GI50 (NCI/ADR-RES ovarian) was 0.287 µM, the TGI (NCI/ADR-RES ovarian) was 1.16 µM and the GI50 (U251 CNS) was 0.517 µM. The TGI (U251 CNS) was 1.59 µM, the GI50 (SNB-19 CNS) was 1.63 µM and the TGI (SNB-19 CNS) was 3.58 µM. For the same compound, the GI50 (COLO 205 colon) was 0.937 µM and the TGI (COLO 205 colon) was 2.65 µM.
